Laboratory results reported in patent US11878965B2, “Inhibitors of peptidylarginine deiminases” (Gilead Sciences, Inc., priority 2020, dated 2024).

Molecular target: human PAD4 (Homo sapiens (Human), UniProt Q9UM07)
Assay: In Vitro PAD4 BAEE Biochemical Assay
Conditions: geometric mean of multiple experiments
In short: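 Recombinant human PAD4 (His-SUMO tag removed, E. coli-expressed), 5 nM, preincubated with compound and 2 mM CaCl2 30 min at 25 °C in MOPS pH 7.6 with DTT; 3 mM BAEE added for 2 h at 25 °C, EDTA stop. Released ammonia detected by o-phthalaldehyde/DTT fluorescence (ex 405, em 535 nm).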

[1] = human PAD4, BAEE substrate, 5 nM PAD4, 2 mM calcium chloride, 3 mM BAEE
[2] = recombinant PAD4 5 nM, 2 mM calcium chloride, 3 mM BAEE substrate

human PAD4, sequence (Q9UM07 2-663): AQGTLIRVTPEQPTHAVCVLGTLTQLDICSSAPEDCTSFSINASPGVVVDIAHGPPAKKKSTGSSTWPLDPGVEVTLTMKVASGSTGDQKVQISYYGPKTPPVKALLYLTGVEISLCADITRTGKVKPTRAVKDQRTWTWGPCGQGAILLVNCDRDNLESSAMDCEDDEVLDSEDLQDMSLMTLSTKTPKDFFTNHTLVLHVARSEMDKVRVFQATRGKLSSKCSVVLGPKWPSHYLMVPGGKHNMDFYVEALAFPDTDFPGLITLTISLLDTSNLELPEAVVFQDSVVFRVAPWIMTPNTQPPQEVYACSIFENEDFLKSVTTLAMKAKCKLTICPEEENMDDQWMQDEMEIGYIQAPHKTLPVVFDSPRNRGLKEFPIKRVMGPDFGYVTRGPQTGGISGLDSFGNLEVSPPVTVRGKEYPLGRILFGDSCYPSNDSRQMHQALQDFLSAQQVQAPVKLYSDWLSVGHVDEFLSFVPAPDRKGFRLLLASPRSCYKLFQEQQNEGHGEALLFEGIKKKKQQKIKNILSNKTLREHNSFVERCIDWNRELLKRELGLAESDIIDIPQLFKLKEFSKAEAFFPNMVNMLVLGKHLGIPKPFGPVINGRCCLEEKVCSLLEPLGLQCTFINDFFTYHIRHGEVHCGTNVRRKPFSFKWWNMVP

With `COc1cc(C(=O)N2C[C@H](N)CCN2C)cc2nc(-c3cc4ccc([C@@H](C)NC(=O)c5cccnc5)nc4n3CC3CC3)n(C)c12` [Example 201, N-((R)-1-(2-(5-((R)-5-amino-2-methylhexahydropyridazine-1-carbonyl)-7-methoxy-1-methyl-1H-benzo[d]imidazol-2-yl)-1-(cyclopropylmethyl)-1H-pyrrolo[2,3-b]pyridin-6-yl)ethyl)nicotinamide] the IC50 [1] was 0.0677 µM.
Molecule `COc1cc(C(=O)N2C[C@H](N)CC[C@@H]2C)cc2nc(-c3cc4ccc(-c5cccnc5-c5cncs5)nc4n3CC3CC3)n(C)c12` [Example 267, ((2S,5R)-5-amino-2-methylpiperidin-1-yl)(2-(1-(cyclopropylmethyl)-6-(2-(thiazol-5-yl)pyridin-3-yl)-1H-pyrrolo[2,3-b]pyridin-2-yl)-7-methoxy-1-methyl-1H-benzo[d]imidazol-5-yl)methanone] has an IC50 [1] of 0.138 µM.
Molecule `COc1cc(C(=O)N2C[C@H](N)CCN2C)cc2nc(-c3cc4ccc([C@@H](C)NC(=O)[C@@H](C)c5ccccc5)nc4n3CC3CC3)n(C)c12` [Example 165, (S)-N-((R)-1-(2-(5-((R)-5-amino-2-methylhexahydropyridazine-1-carbonyl)-7-methoxy-1-methyl-1H-benzo[d]imidazol-2-yl)-1-(cyclopropylmethyl)-1H-pyrrolo[2,3-b]pyridin-6-yl)ethyl)-2-phenylpropanamide] has an IC50 [1] of 0.0914 µM.
`Cc1cc2c(cc1C(=O)N1C[C@H]3CC[C@@H]1[C@@H]3N)nc(-c1cc3ccc(N(C(F)F)S(C)(=O)=O)nc3n1CC1CC1)n2C1CC1` [Example 59, N-(2-(5-((1R,4R,7R)-7-amino-2-azabicyclo[2.2.1]heptane-2-carbonyl)-1-cyclopropyl-6-methyl-1H-benzo[d]imidazol-2-yl)-1-(cyclopropylmethyl)-1H-pyrrolo [2,3-b]pyridin-6-yl)-N-(difluoromethyl) methanesulfonamide] showed an IC50 [1] of 9.41 µM.
With `COc1cc(C(=O)N2CCC[C@@H](N)C2)cc2nc(-c3cc4ccc(NS(C)(=O)=O)cc4n3CC3CC3)n(C)c12` [Example 1, (R)-N-(2-(5-(3-aminopiperidine-1-carbonyl)-7-methoxy-1-methyl-1H-benzo[d]imidazol-2-yl)-1-(cyclopropylmethyl)-1H-indol-6-yl)methanesulfonamide] the IC50 [1] was 1.58 µM.
`COc1cc(C(=O)N2C[C@H](N)[C@@H]3CC[C@H]2C3)cc2nc(-c3cc4ccc([C@@H](C)NC(=O)C5(F)CCC5)nc4n3CC3CC3)n(C)c12` [Example 327, N-((R)-1-(2-(5-((1S,4R,5R)-4-amino-2-azabicyclo[3.2.1]octane-2-carbonyl)-7-methoxy-1-methyl-1H-benzo[d]imidazol-2-yl)-1-(cyclopropylmethyl)-1H-pyrrolo[2,3-b]pyridin-6-yl)ethyl)-1-fluorocyclobutane-1-carboxamide] gave an IC50 [2] of 0.0884 µM.
In the case of `COc1cc(C(=O)N2C[C@H](N)[C@@H]3CC[C@H]2C3)cc2nc(-c3cc4ccc([C@@H](C)NC(=O)C56CC(Cl)(C5)C6)nc4n3CC3CC3)n(C)c12` [Example 229, N-((R)-1-(2-(5-((1S,4R,5R)-4-amino-2-azabicyclo[3.2.1]octane-2-carbonyl)-7-methoxy-1-methyl-1H-benzo[d]imidazol-2-yl)-1-(cyclopropylmethyl)-1H-pyrrolo[2,3-b]pyridin-6-yl)ethyl)-3-chlorobicyclo[1.1.1]pentane-1-carboxamide], the IC50 [1] is reported as 0.0833 µM.
In the case of `C[C@@H](NC(=O)C1(C#N)CC1)c1ccc2cc(-c3nc4cc(C(=O)N5C[C@H](N)[C@@H]6CC[C@H]5C6)cc(F)c4n3C3CC3)n(CC3CC3)c2n1` [Example 303, N-((R)-1-(2-(5-((1S,4R,5R)-4-amino-2-azabicyclo[3.2.1]octane-2-carbonyl)-1-cyclopropyl-7-fluoro-1H-benzo[d]imidazol-2-yl)-1-(cyclopropylmethyl)-1H-pyrrolo[2,3-b]pyridin-6-yl)ethyl)-1-cyanocyclopropane-1-carboxamide], the IC50 [2] is reported as 0.0841 µM.
For `COc1cc(C(=O)N2CCC[C@@H](N)C2)cc2nc(-c3cc4ccc([C@@H](C)NC(=O)C56CC(F)(C5)C6)nc4n3CC3CC3)n(C)c12` [Example 122, N-((R)-1-(2-(5-((R)-3-aminopiperidine-1-carbonyl)-7-methoxy-1-methyl-1H-benzo[d]imidazol-2-yl)-1-(cyclopropylmethyl)-1H-pyrrolo[2,3-b]pyridin-6-yl)ethyl)-3-fluorobicyclo[1.1.1]pentane-1-carboxamide], the IC50 [1] was 0.0939 µM.
Work on `COc1cc(C(=O)N2C[C@H](N)CCN2C)cc2nc(-c3cc4ccc([C@@H](C)NC(=O)C(C)(C)c5ccccc5)nc4n3CC3CC3)n(C)c12` [Example 159, N-((R)-1-(2-(5-((R)-5-amino-2-methylhexahydropyridazine-1-carbonyl)-7-methoxy-1-methyl-1H-benzo[d]imidazol-2-yl)-1-(cyclopropylmethyl)-1H-pyrrolo[2,3-b]pyridin-6-yl)ethyl)-2-methyl-2-phenylpropanamide] yielded an IC50 [1] of 0.229 µM.
Work on `COc1cc(C(=O)N2CCC[C@@H](N)C2)cc2nc(-c3cc4ccc(N(CC5CC5)S(C)(=O)=O)nc4n3CC3CC3)n(C)c12` [Example 20, (R)-N-(2-(5-(3-aminopiperidine-1-carbonyl)-7-methoxy-1-methyl-1H-benzo[d]imidazol-2-yl)-1-(cyclopropylmethyl)-1H-pyrrolo [2,3-b]pyridin-6-yl)-N-(cyclopropylmethyl) methanesulfonamide] yielded an IC50 [1] of 50 µM.
In the case of `COc1cc(C(=O)N2C[C@H](N)CCN2C)cc2nc(-c3cc4ccc([C@@H](C)NC(=O)c5c(C)cccc5C)nc4n3CC3CC3)n(C)c12` [Example 172, N-((R)-1-(2-(5-((R)-5-amino-2-methylhexahydropyridazine-1-carbonyl)-7-methoxy-1-methyl-1H-benzo[d]imidazol-2-yl)-1-(cyclopropylmethyl)-1H-pyrrolo[2,3-b]pyridin-6-yl)ethyl)-2,6-dimethylbenzamide], the IC50 [1] is reported as 0.147 µM.
`COC(=O)N(C)c1ccc2cc(-c3nc4cc(C(=O)N5CCC[C@@H](N)C5)cc(OC)c4n3C)n(CC3CC3)c2n1` [Example 109, (R)-methyl (2-(5-(3-aminopiperidine-1-carbonyl)-7-methoxy-1-methyl-1H-benzo[d]imidazol-2-yl)-1-(cyclopropylmethyl)-1H-pyrrolo[2,3-b]pyridin-6-yl) (methyl)carbamate] showed an IC50 [1] of 0.401 µM.
With `COc1cc(C(=O)N2C[C@H](N)CCN2C)cc2nc(-c3cc4ccc([C@@H](C)NC(=O)[C@@H]5CC5(F)F)nc4n3CC3CC3)n(C)c12` [Example 168, (S)-N-((R)-1-(2-(5-((R)-5-amino-2-methylhexahydropyridazine-1-carbonyl)-7-methoxy-1-methyl-1H-benzo[d]imidazol-2-yl)-1-(cyclopropylmethyl)-1H-pyrrolo[2,3-b]pyridin-6-yl)ethyl)-2,2-difluorocyclopropane-1-carboxamide] the IC50 [1] was 0.102 µM.
With `COc1cc(C(=O)N2[C@H]3CC[C@@H]2[C@H](N)C3)cc2nc(-c3cc4ccc([C@@H](C)NC(=O)N5CC(O)C5)nc4n3CC3CC3)n(C)c12` [Example 236, N-((R)-1-(2-(5-((1R,2R,4S)-2-amino-7-azabicyclo[2.2.1]heptane-7-carbonyl)-7-methoxy-1-methyl-1H-benzo[d]imidazol-2-yl)-1-(cyclopropylmethyl)-1H-pyrrolo[2,3-b]pyridin-6-yl)ethyl)-3-hydroxyazetidine-1-carboxamide] the IC50 [1] was 0.0513 µM.
`COc1cc(C(=O)N2C[C@H](N)CCN2C)cc2nc(-c3cc4ccc([C@@H](C)NC(=O)c5cnn(C)c5)nc4n3CC3CC3)n(C)c12` [Example 169, N-((R)-1-(2-(5-((R)-5-amino-2-methylhexahydropyridazine-1-carbonyl)-7-methoxy-1-methyl-1H-benzo[d]imidazol-2-yl)-1-(cyclopropylmethyl)-1H-pyrrolo[2,3-b]pyridin-6-yl)ethyl)-1-methyl-1H-pyrazole-4-carboxamide] gave an IC50 [1] of 0.0478 µM.
With `COc1cc(C(=O)N2CCC[C@@H](N)C2)cc2nc(-c3cc4ccc(N5[C@@H](C)CCCS5(=O)=O)nc4n3CC3CC3)n(C3CC3)c12` [Example 101, ((R)-3-aminopiperidin-1-yl)(1-cyclopropyl-2-(1-(cyclopropylmethyl)-6-((S)-3-methyl-1,1-dioxido-1,2-thiazinan-2-yl)-1H-pyrrolo[2,3-b]pyridin-2-yl)-7-methoxy-1H-benzo[d]imidazol-5-yl)methanone] the IC50 [1] was 0.0434 µM.
Molecule `COc1cc(C(=O)N2[C@H]3CC[C@@H]2[C@H](N)C3)cc2nc(-c3cc4ccc([C@@H](C)NC(=O)C5(OC)CC5)cc4n3CC3CC3)n(C)c12` [Example 142, N-((R)-1-(2-(5-((1R,2R,4S)-2-amino-7-azabicyclo[2.2.1]heptane-7-carbonyl)-7-methoxy-1-methyl-1H-benzo[d]imidazol-2-yl)-1-(cyclopropylmethyl)-1H-indol-6-yl)ethyl)-1-methoxycyclopropane-1-carboxamide] has an IC50 [1] of 0.0445 µM.
`COc1cc(C(=O)N2C[C@H](N)[C@@H]3CC[C@H]2C3)cc2nc(-c3cc4ccc([C@@H](C)NC(=O)C5(C(F)(F)F)CC5)nc4n3CC3CC3)n(C)c12` [Example 289, N-((R)-1-(2-(5-((1S,4R,5R)-4-amino-2-azabicyclo[3.2.1]octane-2-carbonyl)-7-methoxy-1-methyl-1H-benzo[d]imidazol-2-yl)-1-(cyclopropylmethyl)-1H-pyrrolo[2,3-b]pyridin-6-yl)ethyl)-1-(trifluoromethyl) cyclopropane-1-carboxamide] gave an IC50 [2] of 0.174 µM.
With `COc1cc(C(=O)N2CCC[C@@H](N)C2)cc2nc(-c3cc4ccc(N(C)S(=O)(=O)c5ccccc5)nc4n3CC3CC3)n(C)c12` [Example 12, (R)-N-(2-(5-(3-aminopiperidine-1-carbonyl)-7-methoxy-1-methyl-1H-benzo[d]imidazol-2-yl)-1-(cyclopropylmethyl)-1H-pyrrolo [2,3-b]pyridin-6-yl)-N-methylbenzenesulfonamide] the IC50 [1] was 0.225 µM.
